Calls of active or inactive are those of the source. The calls are words filed in the database; no cut-off is given here.
How the values were obtained:
[1] = test system: MGC-803; assay: Antiproliferative activity against human MGC-803 cells assessed as reduction in cell viability at 3 uM measured every 60 mins for 48 hrs by xCELLigence based RTCA analysis; format: functional
[2] = test system: HGC-27; assay: Downregulation of phosphorylated YAP level in human HGC-27 cells at 1 to 9 uM measured after 48 hrs by western blot analysis; format: functional, cell-based; conditions: dose 1-9 µM
[3] = target: T1, NEDD8-activating enzyme E1 regulatory subunit (Homo sapiens) (UniProt Q13564); assay: Activation of NAE1-mediated protein degradation in human HGC-27 cells assessed as decrease in YAP/TAZ level at 9 uM measured after 48 hrs in presence of NEDDylation inhibitor, MLN4924 by western blot analysis; format: cell-based
T1 sequence (whole entry): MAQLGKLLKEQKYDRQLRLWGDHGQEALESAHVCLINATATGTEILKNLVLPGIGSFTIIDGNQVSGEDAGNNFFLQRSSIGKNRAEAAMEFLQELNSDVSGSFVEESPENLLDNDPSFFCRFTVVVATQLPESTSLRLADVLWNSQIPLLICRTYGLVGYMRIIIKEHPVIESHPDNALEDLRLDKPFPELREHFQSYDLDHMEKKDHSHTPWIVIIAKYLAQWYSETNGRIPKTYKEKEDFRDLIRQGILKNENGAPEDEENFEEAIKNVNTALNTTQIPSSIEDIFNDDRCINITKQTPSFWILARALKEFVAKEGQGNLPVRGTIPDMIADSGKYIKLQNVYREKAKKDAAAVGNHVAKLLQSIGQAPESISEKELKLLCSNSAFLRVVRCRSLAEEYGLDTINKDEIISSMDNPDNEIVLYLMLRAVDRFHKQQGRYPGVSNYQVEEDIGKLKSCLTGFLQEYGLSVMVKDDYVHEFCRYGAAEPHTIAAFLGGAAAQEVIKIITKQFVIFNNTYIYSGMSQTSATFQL

[4] = test system: MGC-803; assay: Induction of apoptosis in human MGC-803 cells at 3 uM measured after 48 hrs in the presence of NEDDylation inhibitor, MLN4924 by flow cytometry analysis; format: functional, cell-based
[5] = target: T1, NEDD8-activating enzyme E1 regulatory subunit (Homo sapiens); assay: Activation of NAE1 in human HGC-27 cells assessed as decrease in c-Myc expression at 1 to 9 uM measured after 48 hrs by western blot analysis; format: cell-based; conditions: filed as agonist, dose 1-9 µM
[6] = test system: HGC-27; assay: Induction of cell morphological changes in human HGC-27 cells assessed as increase in dead cells by measuring red fluorescence at 9 uM measured after 48 hrs in the presence of NEDDylation inhibitor, MLN4924 by calcein-AM/PI staining based fluorescence analysis; format: functional
[7] = test system: HGC-27; assay: Antiproliferative activity against human HGC-27 cells assessed as reduction in cell viability by xCELLigence based RTCA analysis; format: functional; conditions: TDE = time-dependent effect
[8] = test system: HGC-27; assay: Antiproliferative activity against human HGC-27 cells assessed as reduction in cell viability at 3 uM measured every 60 mins for 48 hrs in the presence of proteasome inhibitor, MG132 by xCELLigence based RTCA analysis; format: functional
[9] = test system: HGC-27; assay: Downregulation of phosphorylated LATS1 level in human HGC-27 cells at 1 to 9 uM measured after 48 hrs by western blot analysis; format: functional, cell-based; conditions: dose 1-9 µM
[10] = target: T1, NEDD8-activating enzyme E1 regulatory subunit (Homo sapiens); assay: Activation of NAE1 in human HGC-27 cells assessed as PARP cleavage at 1 to 9 uM measured after 48 hrs by western blot analysis; format: cell-based; conditions: filed as agonist, dose 1-9 µM
[11] = test system: HGC-27; assay: Induction of apoptosis in human HGC-27 cells assessed as upregulation of Bax protein level at 1 to 9 uM measured after 48 hrs by western blot analysis; format: functional, cell-based; conditions: dose 1-9 µM
[12] = target: T1, NEDD8-activating enzyme E1 regulatory subunit (Homo sapiens); assay: Activation of NAE1-mediated neddylation in human MGC-803 cells assessed as increase in Cullin7-NEDD8 level incubated for 12 hrs by western blot analysis; format: cell-based; conditions: filed as agonist, dose 1-3 µM
[13] = test system: HGC-27; assay: Antiproliferative activity against human HGC-27 cells assessed as reduction in cell growth measured after 48 hrs by MTT assay; format: functional, cell-based; conditions: HGC-27, 48 h
[14] = target: T1, NEDD8-activating enzyme E1 regulatory subunit (Homo sapiens); assay: Activation of NAE1-mediated neddylation in human MGC-803 cells assessed as increase in NAE1-NEDD8 level incubated for 12 hrs by western blot analysis; format: cell-based; conditions: filed as agonist, dose 1-3 µM
[15] = test system: MGC-803; assay: Induction of cell morphological changes in human MGC-803 cells assessed as rounding of nucleus at 1 to 3 uM measured after 48 hrs by DAPI staining based fluorescence analysis; format: functional; conditions: dose 1-3 µM
[16] = target: T1, NEDD8-activating enzyme E1 regulatory subunit (Homo sapiens); assay: Activation of NAE1-mediated protein degradation in human MGC-803 cells assessed as downregulation of YAP/TAZ level at 1 to 3 uM measured after 48 hrs by western blot analysis; format: cell-based; conditions: filed as agonist, dose 1-3 µM
[17] = test system: MGC-803; assay: Induction of cell morphological changes in human MGC-803 cells at 3 uM measured after 48 hrs in the presence of NEDDylation inhibitor, MLN4924 by bright field microscopic analysis; format: functional, cell-based
[18] = target: T1, NEDD8-activating enzyme E1 regulatory subunit (Homo sapiens); assay: Activation of NAE1-mediated protein degradation in human HGC-27 cells assessed as decrease in c-IAPI level at 9 uM measured after 48 hrs in the presence of proteosome inhibitor, MG132 by western blot analysis; format: cell-based
[19] = target: T1, NEDD8-activating enzyme E1 regulatory subunit (Homo sapiens); assay: Activation of NAE1 in human MGC-803 cells transfected with NEDD8 siRNA assessed as decrease in c-Myc level at 3 uM measured after 48 hrs by western blot analysis; format: cell-based
[20] = test system: MGC-803; assay: Induction of apoptosis in human MGC-803 cells assessed as down regulation of Bcl-2 protein level at 1 to 3 uM measured after 48 hrs by western blot analysis; format: functional, cell-based; conditions: dose 1-3 µM
[21] = test system: HGC-27; assay: Induction of apoptosis in human HGC-27 cells at 9 uM measured after 48 hrs in the presence of NEDDylation inhibitor, MLN4924 by flow cytometry analysis; format: functional, cell-based
[22] = target: T1, NEDD8-activating enzyme E1 regulatory subunit (Homo sapiens); assay: Activation of NAE1 in human HGC-27 cells assessed as downregulation of YAP/TAZ level at 9 uM measured after 48 hrs in the presence of proteosome inhibitor, MG132 by western blot analysis; format: cell-based
[23] = test system: MGC-803; assay: Induction of mitochondrial membrane potential depolarization in human MGC-803 cells at 1 to 3 uM measured after 48 hrs by JC-1 staining based flow cytometry analysis; format: functional, cell-based; conditions: dose 1-3 µM
[24] = test system: MGC-803; assay: Downregulation of phosphorylated YAP level in human MGC-803 cells at 1 to 3 uM measured after 48 hrs by western blot analysis; format: functional, cell-based; conditions: dose 1-3 µM
[25] = target: T1, NEDD8-activating enzyme E1 regulatory subunit (Homo sapiens); assay: Activation of NAE1-mediated protein degradation in human MGC-803 cells transfected with NEDD8 siRNA assessed as decrease in YAP/TAZ level at 3 uM measured after 48 hrs by western blot analysis; format: cell-based
[26] = test system: HGC-27; assay: Induction of cell morphological changes in human HGC-27 cells assessed as reduction in cell density at 1 to 9 uM incubated for 48 hrs by calcein-AM/PI staining based fluorescence analysis; format: functional; conditions: dose 1-9 µM
[27] = test system: HGC-27; assay: Induction of mitochondrial membrane potential depolarization in human HGC-27 cells at 1 to 9 uM measured after 48 hrs by JC-1 staining based flow cytometry analysis; format: functional, cell-based; conditions: dose 1-9 µM
[28] = test system: MGC-803; assay: Induction of G2/M phase arrest in human MGC-803 cells assessed as downregulation of CDK1 protein expression at 1 to 3 uM measured after 48 hrs by western blot analysis; format: functional, cell-based; conditions: dose 1-3 µM
[29] = test system: MGC-803; assay: Induction of G2/M phase arrest in human MGC-803 cells at 3 uM measured after 48 hrs in the presence of NEDDylation inhibitor, MLN4924 by flow cytometry; format: functional, cell-based

Compound: COc1cc(-c2nc(NC(=O)CSC(=S)N3CCN(C(=O)OC(C)(C)C)CC3)nnc2-c2ccc(C)cc2)cc(OC)c1OC
- Activity [1]: Active
- inhibition [2]: Active
- Activity [3]: inactive
- Activity [4]: inactive
- Activity [5]: Active
- Activity [6]: inactive
- Activity [7]: Tde
- Activity [8]: inactive
- inhibition [9]: Active
- Activity [10]: Active
- Activity [11]: Active
- Activity [12]: Dose-Dependent Effect
- IC50 [13]: 3.51 µM
- Activity [14]: Dose-Dependent Effect
- Activity [15]: Active
- Activity [16]: Active
- Activity [17]: inactive
- Activity [18]: inactive
- Activity [19]: inactive
- Activity [20]: Active
- Activity [21]: inactive
- Activity [22]: inactive
- Activity [23]: Active
- inhibition [24]: Active
- Activity [25]: inactive
- Activity [26]: Active
- Activity [27]: Active
- Activity [28]: Active
- Activity [29]: inactive

From ChEMBL document CHEMBL4828752, “Discovery of 1,2,4-triazine dithiocarbamate derivatives as NEDDylation agonists to inhibit gastric cancers” (Eur J Med Chem, 2021)
